In brackets after ≈: the same amount, converted by molar mass.
Test system: up to 32 different microorganisms
Test: in vitro antibacterial activity (MIC), agar dilution on Brain Heart Infusion (BHI) agar with Steers replicator
Type: cell-based
Conditions: unit assumed
Summary of the method: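 Agar dilution MIC: twelve successive compound dilutions in BHI agar, spot-inoculated with 1:100 (1:10 for slow growers) organism dilutions by Steers replicator, incubated 35-37° C for 20-24 h. MIC is lowest concentration showing no growth, slight haze or sparse colonies versus drug-free control; erythromycin A as class reference.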

For CC[C@H]1OC(=O)[C@H](C)C(=O)[C@H](C)[C@@H](O[C@@H]2O[C@H](C)C[C@H](N(C)C)[C@H]2O)[C@@](C)(OCC#Cc2ccccc2)C[C@@H](C)C(=O)[C@H](C)[C@H]2NC(=O)O[C@@]21C [Example 249, Compound of Formula (IX): L is CO, T is NH, R is —CH2—C≡C-phenyl], the MIC (organism code AA) was 0.1 µg/mL, the MIC (organism code BB) was 0.1 µg/mL and the MIC (organism code CC) was > 100 µg/mL. The MIC (organism code DD) was 0.2 µg/mL, the MIC (organism code EE) was 0.2 µg/mL and the MIC (organism code FF) was 0.1 µg/mL. The MIC (organism code GG) was > 100 µg/mL, the MIC (organism code HH) was 0.1 µg/mL and the MIC (organism code II) was 0.05 µg/mL. It also gave an MIC (organism code JJ) of 0.01 µg/mL, an MIC (organism code KK) of 0.02 µg/mL and an MIC (organism code LL) of 0.02 µg/mL. The MIC (organism code MM) was 100 µg/mL, the MIC (organism code NN) was 0.1 µg/mL and the MIC (organism code OO) was 0.01 µg/mL. For the same compound, the MIC (organism code PP) was 0.1 µg/mL, the MIC (organism code QQ) was 100 µg/mL and the MIC (organism code RR) was 0.39 µg/mL. The MIC (organism code SS) was > 100 µg/mL, the MIC (organism code TT) was > 100 µg/mL and the MIC (organism code UU) was 0.39 µg/mL. For the same compound, the MIC (organism code VV) was 0.1 µg/mL, the MIC (organism code WW) was 4 µg/mL and the MIC (organism code XX) was 0.03 µg/mL. The MIC (organism code YY) was 0.03 µg/mL, the MIC (organism code ZZ) was > 128 µg/mL and the MIC (organism code ZZA) was 0.25 µg/mL.

For CCC1OC(=O)C(C)C(=O)C(C)C(OC2OC(C)CC(N(C)C)C2O)C(C)(OCC=Cc2ccnc3ccccc23)CC(C)C(=O)C(C)C2NC(=O)OC12C (stereo not drawn) [Example 213, R is —CH2CH═CH-(4-quinolyl)], the MIC (organism code AA) was 0.2 µg/mL (≈ 0.261 µM), the MIC (organism code BB) was 0.2 µg/mL (≈ 0.261 µM) and the MIC (organism code CC) was > 100 µg/mL. For the same compound, the MIC (organism code DD) was 0.2 µg/mL (≈ 0.261 µM), the MIC (organism code EE) was 0.2 µg/mL (≈ 0.261 µM) and the MIC (organism code FF) was 0.2 µg/mL (≈ 0.261 µM). For the same compound, the MIC (organism code GG) was > 100 µg/mL, the MIC (organism code HH) was 0.2 µg/mL (≈ 0.261 µM) and the MIC (organism code II) was 0.1 µg/mL (≈ 0.131 µM). The MIC (organism code JJ) was 0.05 µg/mL (≈ 0.0653 µM), the MIC (organism code KK) was 0.05 µg/mL (≈ 0.0653 µM) and the MIC (organism code LL) was 0.02 µg/mL (≈ 0.0261 µM). It also gave an MIC (organism code MM) of 100 µg/mL (≈ 131 µM), an MIC (organism code NN) of 0.39 µg/mL (≈ 0.509 µM) and an MIC (organism code OO) of 0.05 µg/mL (≈ 0.0653 µM). It also gave an MIC (organism code PP) of 0.2 µg/mL (≈ 0.261 µM), an MIC (organism code QQ) of 100 µg/mL (≈ 131 µM) and an MIC (organism code RR) of 0.39 µg/mL (≈ 0.509 µM). For the same compound, the MIC (organism code SS) was > 100 µg/mL, the MIC (organism code TT) was > 100 µg/mL and the MIC (organism code UU) was 0.39 µg/mL (≈ 0.509 µM). For the same compound, the MIC (organism code VV) was 0.39 µg/mL (≈ 0.509 µM), the MIC (organism code WW) was 4 µg/mL (≈ 5.22 µM) and the MIC (organism code XX) was 0.03 µg/mL (≈ 0.0392 µM). The MIC (organism code YY) was 0.03 µg/mL (≈ 0.0392 µM), the MIC (organism code ZZ) was > 128 µg/mL and the MIC (organism code ZZA) was 1 µg/mL (≈ 1.31 µM).

Compound CCC1OC(=O)C(C)C(=O)C(C)C(OC2OC(C)CC(N(C)C)C2O)C(C)(OCC=Cc2cnc3ncccc3c2)CC(C)C(=O)C(C)C2NC(=O)OC12C (stereo not drawn) [Example 202, R is —CH2CH═CH-(1,8-naphthyridin-3-yl)] has an MIC (organism code XX) of 0.03 µg/mL (≈ 0.0391 µM), an MIC (organism code YY) of 0.03 µg/mL (≈ 0.0391 µM) and an MIC (organism code ZZ) of 32 µg/mL (≈ 41.7 µM). It also gave an MIC (organism code ZZA) of 2 µg/mL (≈ 2.61 µM).

In the case of C=CCO[C@@]1(C)C[C@@H](C)C(=O)[C@H](C)[C@H]2OC(=O)O[C@]2(C)[C@@H](CC)OC(=O)[C@H](C)C(=O)[C@H](C)[C@H]1O[C@@H]1O[C@H](C)C[C@H](N(C)C)[C@H]1O [Example 71, Compound of Formula (IX): L is CO, T is O, R is —CH2CH═CH2], the MIC (Candida albicans CCH 442 (code TT)) is reported as > 100 µg/mL, the MIC (Enterococcus faecism ATCC 8043 (code II)) is reported as 1.56 µg/mL and the MIC (Escherichia coli DC-2 (code SS)) is reported as > 100 µg/mL. For the same compound, the MIC (Escherichia coli JUHL (code QQ)) was > 100 µg/mL, the MIC (Escherichia coli SS (code RR)) was 3.1 µg/mL and the MIC (Haemophilis influenzae DILL AMP R (code WW)) was 64 µg/mL. It also gave an MIC (Micrococcus luteus ATCC 4698 (code PP)) of 0.78 µg/mL, an MIC (Mycobacterium smegmatis ATCC 114 (code UU)) of 25 µg/mL and an MIC (Nocardia Asteroides ATCC9970 (code VV)) of 0.39 µg/mL. The MIC (Staphylococcus aureus 1775 (code GG)) was > 100 µg/mL, the MIC (Staphylococcus aureus A5177 (code BB)) was 0.39 µg/mL and the MIC (Staphylococcus aureus A-5278 (code CC)) was > 100 µg/mL. It also gave an MIC (Staphylococcus aureus ATCC 6538P (code AA)) of 0.78 µg/mL, an MIC (Staphylococcus aureus CMX 553 (code FF)) of 3.1 µg/mL and an MIC (Staphylococcus aureus CMX 642A (code DD)) of 1.56 µg/mL. It also gave an MIC (Staphylococcus aureus NCTC10649M (code EE)) of 0.78 µg/mL, an MIC (Staphylococcus epidermidis 3519 (code HH)) of 3.1 µg/mL and an MIC (Streptococcus Pneumonia 5649 (code ZZA)) of 1 µg/mL. For the same compound, the MIC (Streptococcus Pneumonia 5979 (code ZZ)) was > 128 µg/mL, the MIC (Streptococcus Pneumonia ATCC6303 (code XX)) was 0.25 µg/mL and the MIC (Streptococcus Pneumonia GYR 1171 (code YY)) was 0.25 µg/mL. The MIC (Streptococcus agalactiae CMX 508 (code KK)) was 0.2 µg/mL, the MIC (Streptococcus bovis A-5169 (code JJ)) was 0.2 µg/mL and the MIC (Streptococcus pyogenes 930 (code MM)) was > 100 µg/mL. The MIC (Streptococcus pyogenes EES61 (code LL)) was 0.39 µg/mL and the MIC (Streptococcus pyogenes PIU 2548 (code NN)) was 0.39 µg/mL.

— patent USRE39591E1, “6-O-substituted ketolides having antibacterial activity” (Abbott Laboratories, priority 1996, dated 2007)
